Experimental data reported in the supplement of paper PMC8671470.

Assays:
Details in all cases: 72 h
SHI-1 [1] = assay: cell viability (% survival relative to DMSO control, bortezomib = 0%); higher = less cytotoxic
Method in brief: (§1)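 Seeding density for each of the 10 AML and 5 CML cell lines was titrated to the linear growth range. Cells went into 384-well plates pre-printed in duplicate with compounds at 1, 10, 100, 1000 or 10000 nM and were held for 72 h at 37 °C with 5% CO2. CellTiter-Glo luminescence then provided the readout. Percent survival is expressed relative to vehicle at 100% and a 10 µM positive control at 0%, averaged over duplicates.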

HL-60 [2] = assay: as above
Method in brief: as §1

K-562 [3] = assay: as above
Method in brief: as §1

KG-1 [4] = assay: as above
Method in brief: as §1

ML-2 [5] = assay: as above
Method in brief: as §1

HEL [6] = assay: as above
Method in brief: as §1

Mono-Mac-6 [7] = assay: as above
Method in brief: as §1

KCL-22 [8] = assay: as above
Method in brief: as §1

LAMA-84 [9] = assay: as above
Method in brief: as §1

MV4-11 [10] = assay: as above
Method in brief: as §1

BV-173 [11] = assay: as above
Method in brief: as §1

HL-60 [12] = assay: cell viability (% survival relative to DMSO control); higher = less cytotoxic
Method in brief: (§2)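 For each screen, HL-60 cells in RPMI 1640 with 10% FBS carried either DMSO or 100 nM of one of three metabolic inhibitors while the full library was applied at five tenfold concentrations, 1–10,000 nM, in duplicate. Plates were 384-well and were kept 72 h at 37 °C, 5% CO2. Viability, measured by CellTiter-Glo, was normalised to wells with DMSO and with 10 μM proteasome inhibitor. Where area under the curve appears, it was fitted by four-parameter log-logistic models in drc and PharmacoGx.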

HL-60 [13] = assay: area under dose-response curve (viability, 1 nM-10 uM) (fraction (0-1)); higher = more sensitive
Method in brief: as §2

SHI-1 [14] = system: SHI-1
Method in brief: (§3)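 The IC50 was derived from log-logistic dose–response fitting. Each of fifteen myeloid leukaemia cell lines, seeded in RPMI 1640 within its linear growth range, was exposed in 384-well plates to five tenfold doses (1 to 10,000 nM) in duplicate for 72 h at 37 °C and 5% CO2. Luminescent ATP viability readings were normalised to vehicle and to a positive control at 10 µM before four-parameter curve fitting.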

HL-60 [15] = system: HL-60
Method in brief: as §3

K-562 [16] = system: K-562
Method in brief: as §3

KU-812 = system: KU-812
Method in brief: as §3

KG-1 [17] = system: KG-1
Method in brief: as §3

ML-2 [18] = system: ML-2
Method in brief: as §3

HEL [19] = system: HEL
Method in brief: as §3

Mono-Mac-6 [20] = system: Mono-Mac-6
Method in brief: as §3

KCL-22 [21] = system: KCL-22
Method in brief: as §3

LAMA-84 [22] = system: LAMA-84
Method in brief: as §3

THP-1 = system: THP-1
Method in brief: as §3

MV4-11 [23] = system: MV4-11
Method in brief: as §3

NOMO-1 = system: NOMO-1
Method in brief: as §3

BV-173 [24] = system: BV-173
Method in brief: as §3

MOLM-13 = system: MOLM-13
Method in brief: as §3

CN(C)C(=O)n1nnnc1Cc1ccc(-c2ccccc2)cc1
Details	area under dose-response curve, co-treatment: AZD3965 100 nM	area under dose-response curve, co-treatment: DMSO vehicle	area under dose-response curve, co-treatment: GSK2194069 100 nM	area under dose-response curve, co-treatment: pictilisib 100 nM	cell viability, 1 nM [%]	cell viability, 10 nM [%]	cell viability, 100 nM [%]	cell viability, 1000 nM [%]	cell viability, 10000 nM [%]
BV-173 [11]	–	–	–	–	96.6	110	98.1	13.7	0.269
HEL [6]	–	–	–	–	101	112	102	87.1	1.09
HL-60 [2]	–	–	–	–	114	136	106	108	2.17
HL-60 [13]	0.113	0.116	0.108	0.116	–	–	–	–	–
K-562 [3]	–	–	–	–	100	111	112	78.1	4.59
KCL-22 [8]	–	–	–	–	94.6	109	101	95	0.732
KG-1 [4]	–	–	–	–	93.7	108	104	60.6	8.52
LAMA-84 [9]	–	–	–	–	83	109	103	85.5	3.4
ML-2 [5]	–	–	–	–	101	112	114	69.2	3.07
MV4-11 [10]	–	–	–	–	98.3	114	89.2	76.4	0.0147
Mono-Mac-6 [7]	–	–	–	–	95.9	102	102	88.6	0.0787
SHI-1 [1]	–	–	–	–	97.5	116	125	112	1.4

cell viability [%], HL-60 [12]
Details	0.001 µM	0.01 µM	0.1 µM	1 µM	10 µM
co-treatment: AZD3965 100 nM	91.3	99.6	103	105	6.18
co-treatment: DMSO vehicle	97.5	99.54	101	101.1	6.81
co-treatment: GSK2194069 100 nM	101	96.8	104	109	6.62
co-treatment: pictilisib 100 nM	96.2	93.4	100	104	5

Details	IC50 (cell viability) [µM]
BV-173 [24]	0.422
HEL [19]	2.41
HL-60 [15]	3.63
K-562 [16]	1.88
KCL-22 [21]	2.92
KG-1 [17]	1.17
KU-812	1.89
LAMA-84 [22]	2.45
ML-2 [18]	1.5
MOLM-13	3.38
MV4-11 [23]	1.77
Mono-Mac-6 [20]	2.48
NOMO-1	4.43
SHI-1 [14]	3.74
THP-1	1.74

Cc1[nH]n(-c2ccccc2)c(=O)c1C1(C(F)(F)F)C(=O)N(c2ccccc2)C2=C1C(=O)CC(C)(C)C2 (stereo not drawn)
Details	area under dose-response curve, co-treatment: AZD3965 100 nM	area under dose-response curve, co-treatment: DMSO vehicle	area under dose-response curve, co-treatment: GSK2194069 100 nM	area under dose-response curve, co-treatment: pictilisib 100 nM	cell viability, 1 nM [%]	cell viability, 10 nM [%]	cell viability, 100 nM [%]	cell viability, 1000 nM [%]	cell viability, 10000 nM [%]
BV-173 [11]	–	–	–	–	103	89.2	128	99.8	111
HEL [6]	–	–	–	–	94.3	104	108	90.8	90.9
HL-60 [2]	–	–	–	–	121	120	104	77.6	103
HL-60 [13]	< 0.0301	< 0.0301	< 0.0301	< 0.0301	–	–	–	–	–
K-562 [3]	–	–	–	–	89.6	100	103	108	97.3
KCL-22 [8]	–	–	–	–	84.5	140	99.2	108	103
KG-1 [4]	–	–	–	–	96.7	97.6	97.8	93.7	107
LAMA-84 [9]	–	–	–	–	106	92.6	99.9	110	92.4
ML-2 [5]	–	–	–	–	98.6	87.9	115	101	99.8
MV4-11 [10]	–	–	–	–	105	104	99.4	97.1	96.4
Mono-Mac-6 [7]	–	–	–	–	115	98.1	105	97.1	101
SHI-1 [1]	–	–	–	–	101	109	109	108	104

cell viability [%], HL-60 [12]
Details	0.001 µM	0.01 µM	0.1 µM	1 µM	10 µM
co-treatment: AZD3965 100 nM	101.7	100.9	107	98.5	102
co-treatment: DMSO vehicle	99.8	100	102	102	102
co-treatment: GSK2194069 100 nM	98.536	106	105	100.4	97.8
co-treatment: pictilisib 100 nM	97.2	95.5	101	102	104

Details	IC50 (cell viability) [µM]
BV-173 [24]	> 10
HEL [19]	> 10
HL-60 [15]	> 10
K-562 [16]	> 10
KCL-22 [21]	> 10
KG-1 [17]	> 10
KU-812	> 10
LAMA-84 [22]	> 10
ML-2 [18]	> 10
MOLM-13	> 10
MV4-11 [23]	> 10
Mono-Mac-6 [20]	> 10
NOMO-1	> 10
SHI-1 [14]	> 10
THP-1	> 10
